In patent US11267825B2 (AICURIS GMBH & CO. KG, priority 2017, dated 2022):
pEC50, pIC50: −log10 of the molar value.

Tests used:
HBV = test: Determination of HBV DNA from the supernatants of HepAD38 cells (anti-HBV activity); assay type: cell-based, hepatitis B virus; details: Hepatitis B virus, 144 h; HBV DNA in HepAD38 supernatant at day 6; read-out: Cell Activity (EC50)
Outline: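 EC50 values were obtained by non-linear regression of HBV DNA copy numbers measured by qPCR against pCH-9/3091 plasmid standards. The DNA came from filtered supernatants collected on day 6. Before that, tetracycline-withdrawn HepAD38 cells had been exposed to serial half-log compound dilutions, with tetracycline-treated cells as the non-producing control.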

HBV core protein = HBV core protein (UniProt P03146); assay type: biochemical; details: read-out: Assembly Activity (IC50); BODIPY-FL labelled core protein, assembly started with NaCl, read after 6 min
Outline: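 Compounds tested at 8 concentrations in 0.5-log steps from 100, 31.6 or 10 μM against 1.0–2.0 μM BODIPY-FL-labelled Cys150 core dimers (residues 1–149), 50 mM HEPES pH 7.5. NaCl ([…] final) triggered assembly; quenching read at 6 min, 477/525 nm, with 2.5 M and 0 M NaCl as controls; EC50 by nonlinear fit.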

Chain of HBV core protein (P03146 whole entry, looked up, the tested form may be a part): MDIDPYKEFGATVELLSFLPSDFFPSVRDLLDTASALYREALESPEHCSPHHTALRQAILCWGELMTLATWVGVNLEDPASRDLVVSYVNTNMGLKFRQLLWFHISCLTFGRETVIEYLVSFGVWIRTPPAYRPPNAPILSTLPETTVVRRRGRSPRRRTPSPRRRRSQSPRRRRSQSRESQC

| SMILES | pEC50 (HBV) | pIC50 (HBV core protein) |
| --- | --- | --- |
| Cc1nc2c(s1)CN(C(=O)c1cc3c(Cl)cc(Cl)cc3[nH]1)CC2 [Example 188, 4,6-dichloro-2-{2-methyl-4H,5H,6H,7H-[1,3]thiazolo[5,4-c]pyridine-5-carbonyl}-1H-indole] | 5.00 to 6.00 | 5.00 to 5.30 |
| CC(C)(O)CNc1nc2c(s1)CN(C(=O)c1cc3ccccc3[nH]1)CC2 [Example 95, 1-{[5-(1H-indole-2-carbonyl)-4H,5H,6H,7H-[1,3]thiazolo[5,4-c]pyridin-2-yl]amino}-2-methylpropan-2-ol] | > 6.00 | > 5.30 |
| C#Cc1cccc2[nH]c(C(=O)N3CCc4nc(N)sc4C3)cc12 [Example 14, 5-(4-ethynyl-1H-indole-2-carbonyl)-4H,5H,6H,7H-[1,3]thiazolo[5,4-c]pyridin-2-amine] | 5.00 to 6.00 | > 4.00 |
| Cc1cc(F)cc2[nH]c(C(=O)N3CCc4nc(NCC5CCOC5)sc4C3)cc12 (centres unmarked) [Example 120, 5-(6-fluoro-4-methyl-1H-indole-2-carbonyl)-N-[(oxolan-3-yl)methyl]-4H,5H,6H,7H-[1,3]thiazolo[5,4-c]pyridin-2-amine] | > 6.00 | > 5.30 |
| Nc1nc2c(s1)CN(C(=O)c1cc3c(C4CC4)cccc3[nH]1)CC2 [Example 82, 5-(4-cyclopropyl-1H-indole-2-carbonyl)-4H,5H,6H,7H-[1,3]thiazolo[5,4-c]pyridin-2-amine] | 5.00 to 6.00 | 5.00 to 5.30 |
| CC(C)(C)CC(=O)Nc1nc2c(s1)CN(C(=O)c1cc3c(Cl)cccc3[nH]1)CC2 [Example 263, N-[5-(4-chloro-1H-indole-2-carbonyl)-4H,5H,6H,7H-[1,3]thiazolo[5,4-c]pyridin-2-yl]-3,3-dimethylbutanamide] | > 6.00 | 5.00 to 5.30 |
| O=C(c1cc2ccccc2[nH]1)N1CCc2nc(NCCN3CCOCC3)sc2C1 [Example 36, 5-(1H-indole-2-carbonyl)-N-[2-(morpholin-4-yl)ethyl]-4H,5H,6H,7H-[1,3]thiazolo[5,4-c]pyridin-2-amine] | 5.00 to 6.00 | 5.00 to 5.30 |
| CCc1cc(F)cc2[nH]c(C(=O)N3CCc4nc(NCC5CCOC5)sc4C3)cc12 (centres unmarked) [Example 255, 5-(4-ethyl-6-fluoro-1H-indole-2-carbonyl)-N-[(oxolan-3-yl)methyl]-4H,5H,6H,7H-[1,3]thiazolo[5,4-c]pyridin-2-amine] | > 6.00 | > 5.30 |
| O=C(c1cc2ccccc2[nH]1)N1CCc2nc(NCC(CO)CC3CCC3)sc2C1 (centres unmarked) [Example 227, 2-(cyclobutylmethyl)-3-{[5-(1H-indole-2-carbonyl)-4H,5H,6H,7H-[1,3]thiazolo[5,4-c]pyridin-2-yl]amino}propan-1-ol] | > 6.00 | > 4.00 |
| O=C(c1cc2c(C(F)F)cccc2[nH]1)N1CCc2nc(NCC3(O)CCC3)sc2C1 [Example 408, 1-[({5-[4-(difluoromethyl)-1H-indole-2-carbonyl]-4H,5H,6H,7H-[1,3]thiazolo[5,4-c]pyridin-2-yl}amino)methyl]cyclobutan-1-ol] | > 6.00 | > 5.30 |
| CC(C)(C)OC(=O)N1CCOC(CNc2nc3c(s2)CN(C(=O)c2cc4ccccc4[nH]2)CC3)C1 (centres unmarked) [Example 273, tert-butyl 2-({[5-(1H-indole-2-carbonyl)-4H,5H,6H,7H-[1,3]thiazolo[5,4-c]pyridin-2-yl]amino}methyl)morpholine-4-carboxylate] | > 6.00 | 5.00 to 5.30 |
| CS(=O)(=O)Nc1nc2c(s1)CN(C(=O)c1cc3ccccc3[nH]1)CC2 [Example 24, N-[5-(1H-indole-2-carbonyl)-4H,5H,6H,7H-[1,3]thiazolo[5,4-c]pyridin-2-yl]methanesulfonamide] | 5.00 to 6.00 | > 4.00 |
| Cc1nc2c(s1)CN(C(=O)c1cc3c(F)c(F)ccc3[nH]1)CC2 [Example 193, 4,5-difluoro-2-{2-methyl-4H,5H,6H,7H-[1,3]thiazolo[5,4-c]pyridine-5-carbonyl}-1H-indole] | > 6.00 | > 5.30 |
